From paper PMC8851638 (ACS Omega, 2022)
Converted amounts (≈) assume the structure as drawn. “And” between values parts separate entries of the source, which are not always exact repeats. Equal values may be shown once.

Key:
S. aureus [1] = test: Checkerboard combination assay with Ciprofloxacin; type: cell-based, Staphylococcus aureus
C. albicans100 [2] = test: Single-step resistance selection; type: cell-based, Candida albicans; conditions: 4 × MIC, 48 h
K. pneumoniae [3] = test: Single-step resistance selection; type: cell-based; conditions: 4 × MIC, 48 h
B. subtilis (MDR00423) = test: MIC and MBC by broth microdilution; type: cell-based
[4] = tested on: clinical pathogenic isolates; test: Single-step resistance selection, whole panel; type: cell-based; conditions: 4 × MIC
A. baumannii (MDR00521) = test: MIC and MBC by broth microdilution; type: cell-based
[5] = biological target: T1, dihydrofolate reductase (DHFR) (Homo sapiens, UniProt P00374); test: DHFR inhibition; type: biochemical
T1 sequence (P00374 1-187): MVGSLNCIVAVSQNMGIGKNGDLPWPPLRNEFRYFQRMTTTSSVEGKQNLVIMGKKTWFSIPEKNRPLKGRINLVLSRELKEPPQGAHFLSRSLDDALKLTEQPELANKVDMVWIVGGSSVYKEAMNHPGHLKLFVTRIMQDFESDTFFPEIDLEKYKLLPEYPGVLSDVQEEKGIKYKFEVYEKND

A. baumannii [6] = test: Single-step resistance selection; type: cell-based; conditions: 4 × MIC, 48 h
S. epidermidis [7] = test: Single-step resistance selection; type: cell-based, Staphylococcus epidermidis; conditions: 4 × MIC, 48 h
A. baumannii [8] = test: Checkerboard combination assay with Ciprofloxacin; type: cell-based
K. pneumoniae [9] = test: Checkerboard combination assay with Ciprofloxacin; type: cell-based
[10] = tested on: C. albicans100 (MDR00100); test: Agar well-diffusion antimicrobial sensitivity assay; type: cell-based, Candida albicans; conditions: Candida albicans, read-out: Inhibition Zone (IZ)
E. coli (MDR00501) [11] = test: MIC and MBC by broth microdilution; type: cell-based
C. albicans100 [12] = test: Checkerboard combination assay with Ketoconazole; type: cell-based, Candida albicans
K. pneumoniae (MDR00244) = test: MIC and MBC by broth microdilution; type: cell-based; conditions: ratio in parentheses
[13] = tested on: C. albicans200 (MDR00200); test: MIC and MFC by broth microdilution; type: cell-based, Candida albicans
B. subtilis [14] = test: Checkerboard combination assay with Ciprofloxacin; type: cell-based
B. subtilis [15] = test: Single-step resistance selection; type: cell-based; conditions: 4 × MIC, 48 h
E. coli [16] = test: Checkerboard combination assay with Ciprofloxacin; type: cell-based
[17] = tested on: C. albicans200 (MDR00200); test: Agar well-diffusion antimicrobial sensitivity assay; type: cell-based, Candida albicans; conditions: Candida albicans, read-out: Inhibition Zone (IZ)
S. aureus [18] = test: Single-step resistance selection; type: cell-based, Staphylococcus aureus; conditions: 4 × MIC, 48 h
RBCs = test: Hemolytic assay; type: cell-based; conditions: human RBCs; compounds 1.0 mg/mL; Triton X-100 0.1% v/v; 37 °C, 35 min
S. aureus biofilm = test: Staphylococcus biofilm mass reduction; type: cell-based; conditions: at their MIC
[19] = tested on: BNL: mouse normal liver cells; test: In vitro cytotoxicity on normal cell line; type: cell-based
[20] = In vitro cytotoxicity on normal cell line; type: cell-based, mouse; conditions: mouse, BNL normal liver cells
[21] = tested on: H9C2: rat heart/myocardium; test: In vitro cytotoxicity on normal cell line; type: cell-based
[22] = In vitro cytotoxicity on normal cell line; type: cell-based, rat; conditions: rat, H9C2 heart/myocardium cells
E. coli DNA gyrase = E. coli DNA gyrase (Escherichia coli, UniProt P0AES4+P0AES6); test: DNA gyrase inhibition; type: biochemical
E. coli (MDR00501) [23] = test: Agar well-diffusion antimicrobial sensitivity assay; type: cell-based; conditions: Escherichia coli, read-out: Inhibition Zone (IZ)
S. aureus (MDR00231) [24] = test: MIC and MBC by broth microdilution; type: cell-based, Staphylococcus aureus
[25] = tested on: Vero: green monkey kidney; test: In vitro cytotoxicity on normal cell line; type: cell-based
[26] = In vitro cytotoxicity on normal cell line; type: cell-based, green monkey; conditions: green monkey, Vero kidney cells
[27] = tested on: S. epidermidis (MDR00223); test: MIC and MBC by broth microdilution; type: cell-based, Staphylococcus epidermidis
S. aureus (MDR00231) [28] = test: Agar well-diffusion antimicrobial sensitivity assay; type: cell-based, Staphylococcus aureus; conditions: Staphylococcus aureus, read-out: Inhibition Zone (IZ)
E. coli [29] = test: Single-step resistance selection; type: cell-based; conditions: 4 × MIC, 48 h
C. albicans200 [30] = test: Checkerboard combination assay with Ketoconazole; type: cell-based, Candida albicans
[31] = tested on: C. albicans100 (MDR00100); test: MIC and MFC by broth microdilution; type: cell-based, Candida albicans
S. epidermidis biofilm = test: Staphylococcus biofilm mass reduction; type: cell-based; conditions: at their MIC
C. albicans200 [32] = test: Single-step resistance selection; type: cell-based, Candida albicans; conditions: 4 × MIC, 48 h
[33] = tested on: S. epidermidis (MDR00223); test: Agar well-diffusion antimicrobial sensitivity assay; type: cell-based, Staphylococcus epidermidis; conditions: Staphylococcus epidermidis, read-out: Inhibition Zone (IZ)
S. epidermidis [34] = test: Checkerboard combination assay with Ciprofloxacin; type: cell-based, Staphylococcus epidermidis

Chain of E. coli DNA gyrase (P0AES4 whole entry, the tested form may be a part, one chain of several): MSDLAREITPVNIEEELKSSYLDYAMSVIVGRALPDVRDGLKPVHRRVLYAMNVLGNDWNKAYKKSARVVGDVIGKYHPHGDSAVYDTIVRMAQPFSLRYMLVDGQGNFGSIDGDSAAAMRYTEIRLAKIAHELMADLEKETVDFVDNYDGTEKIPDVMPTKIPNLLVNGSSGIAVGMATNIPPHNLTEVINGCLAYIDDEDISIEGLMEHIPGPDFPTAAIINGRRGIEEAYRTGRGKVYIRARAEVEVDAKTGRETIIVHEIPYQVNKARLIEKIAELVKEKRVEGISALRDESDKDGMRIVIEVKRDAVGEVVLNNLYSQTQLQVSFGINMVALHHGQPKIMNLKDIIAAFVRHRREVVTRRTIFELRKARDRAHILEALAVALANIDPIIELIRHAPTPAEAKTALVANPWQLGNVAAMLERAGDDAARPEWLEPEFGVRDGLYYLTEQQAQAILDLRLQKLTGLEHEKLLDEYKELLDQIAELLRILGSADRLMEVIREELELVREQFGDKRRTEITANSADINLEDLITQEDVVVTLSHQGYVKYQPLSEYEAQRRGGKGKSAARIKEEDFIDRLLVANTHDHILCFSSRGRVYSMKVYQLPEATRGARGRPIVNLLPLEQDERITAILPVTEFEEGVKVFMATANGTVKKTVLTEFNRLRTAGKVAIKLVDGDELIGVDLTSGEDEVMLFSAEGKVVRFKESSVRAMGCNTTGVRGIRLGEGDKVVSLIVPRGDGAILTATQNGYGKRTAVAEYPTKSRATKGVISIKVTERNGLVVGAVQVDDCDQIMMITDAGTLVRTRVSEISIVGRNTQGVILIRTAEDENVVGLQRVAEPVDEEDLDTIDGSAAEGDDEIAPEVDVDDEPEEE

N#CC(=Cc1ccccc1O)C1=NC(=O)C(=Cc2cn(-c3ccccc3)nc2-c2ccccc2)S1 [Compound 5a, 3-(2-Hydroxyphenyl)-2-(5-((1,3-diphenyl-1H-pyrazol-4-yl)methylene)-4-oxo-4,5-dihydro-thiazol-2-yl)acrylonitrile]
combination effect (S. aureus [1]): S (S: synergism)
fractional inhibitory concentration index (FICI) (S. aureus [1]): 0.5
Single-step resistance frequency (mutation frequency) (C. albicans100 [2]): 2.10 × 10^–8
Single-step resistance frequency (mutation frequency) (K. pneumoniae [3]): 1.90 × 10^–8
MBC/MIC (B. subtilis (MDR00423); B. subtilis, ratio in parentheses): 1
MIC (B. subtilis (MDR00423); Bacillus subtilis, read-out: MIC (mean ± SEM), B. subtilis, broth microdilution): 0.49 ± 0.2 µg/mL (≈ 1.03 µM)
mutation frequency, range over panel [4]: 2.21 × 10^–7 to 2.71 × 10^–8
MIC (mean ± SEM) (A. baumannii (MDR00521); broth microdilution): 0.48 ± 0.5 µg/mL (≈ 1.01 µM)
MBC/MIC (A. baumannii (MDR00521); ratio in parentheses): 0.5
IC50 [5]: 1.11 ± 0.15 µM
Single-step resistance frequency (mutation frequency) (A. baumannii [6]): 1.80 × 10^–8
Single-step resistance frequency (mutation frequency) (S. epidermidis [7]): 2.71 × 10^–8
combination effect (A. baumannii [8]): S (S: synergism)
fractional inhibitory concentration index (FICI) (A. baumannii [8]): 0.5
combination effect (K. pneumoniae [9]): S (S: synergism)
fractional inhibitory concentration index (FICI) (K. pneumoniae [9]): 0.25
zone of inhibition at 100000 µg/mL [10]: 28 ± 0.4 mm
MIC (mean ± SEM) (E. coli (MDR00501) [11]; E. coli, broth microdilution): 0.46 ± 0.3 µg/mL (≈ 0.969 µM)
MBC/MIC (E. coli (MDR00501) [11]; E. coli, ratio in parentheses): 1
MIC (E. coli (MDR00501) [11]; Escherichia coli, read-out: MIC (mean ± SEM), E. coli, broth microdilution): 0.46 µg/mL (≈ 0.969 µM)
combination effect (C. albicans100 [12]): S (S: synergism)
fractional inhibitory concentration index (FICI) (C. albicans100 [12]): 0.25
MBC/MIC (K. pneumoniae (MDR00244)): 1
MIC (mean ± SEM) ([13]; C. albicans200, broth microdilution): 0.24 ± 0.4 µg/mL (≈ 0.506 µM)
MFC/MIC ([13]; C. albicans200, ratio in parentheses): 1
MIC ([13]; Candida albicans, read-out: MIC (mean ± SEM), C. albicans200, broth microdilution): 0.24 µg/mL (≈ 0.506 µM)
combination effect (B. subtilis [14]): S (S: synergism)
fractional inhibitory concentration index (FICI) (B. subtilis [14]): 0.25
Single-step resistance frequency (mutation frequency) (B. subtilis [15]): 2.93 × 10^–7
combination effect (E. coli [16]): S (S: synergism)
fractional inhibitory concentration index (FICI) (E. coli [16]): 0.5
zone of inhibition at 100000 µg/mL [17]: 30 ± 0.6 mm
Single-step resistance frequency (mutation frequency) (S. aureus [18]): 3.22 × 10^–7
%lysis of RBCs (RBCs): 9.67% and 9.67 ± 0.31%
reduction of biofilm formation (S. aureus biofilm): 89.1%
Selectivity index against DHFR ([19]; IC50 of BNL / IC50 of DHFR): 93.23
Selectivity index against DNA gyrase ([19]; IC50 of BNL / IC50 of DNA gyrase): 4.67
IC50 at 72 h [20]: 103 ± 1.44 µM
Selectivity index against DHFR ([21]; IC50 of H9C2 / IC50 of DHFR): 89.37
Selectivity index against DNA gyrase ([21]; IC50 of H9C2 / IC50 of DNA gyrase): 4.48
IC50 at 72 h [22]: 99.2 ± 2.29 µM
IC50 (E. coli DNA gyrase): 22.1 ± 0.3 µM
zone of inhibition at 100000 µg/mL (E. coli (MDR00501) [23]): 28 ± 0.14 mm
MBC/MIC (S. aureus (MDR00231) [24]; S. aureus, ratio in parentheses): 1
MIC (S. aureus (MDR00231) [24]; Staphylococcus aureus, read-out: MIC (mean ± SEM), S. aureus, broth microdilution): 0.48 ± 0.1 µg/mL (≈ 1.01 µM)
Selectivity index against DHFR ([25]; IC50 of Vero / IC50 of DHFR): 72.28
Selectivity index against DNA gyrase ([25]; IC50 of Vero / IC50 of DNA gyrase): 3.62
IC50 at 72 h [26]: 80.2 ± 1.79 µM
MBC/MIC ([27]; S. epidermidis, ratio in parentheses): 0.5
MIC ([27]; Staphylococcus epidermidis, read-out: MIC (mean ± SEM), S. epidermidis, broth microdilution): 0.49 ± 0.4 µg/mL (≈ 1.03 µM)
zone of inhibition at 100000 µg/mL (S. aureus (MDR00231) [28]): 29 ± 0.22 mm
Single-step resistance frequency (mutation frequency) (E. coli [29]): 2.21 × 10^–7
combination effect (C. albicans200 [30]): S (S: synergism)
fractional inhibitory concentration index (FICI) (C. albicans200 [30]): 0.5
MIC (mean ± SEM) ([31]; C. albicans100, broth microdilution): 0.43 ± 0.5 µg/mL (≈ 0.906 µM)
MFC/MIC ([31]; C. albicans100, ratio in parentheses): 0.5
MIC ([31]; Candida albicans, read-out: MIC (mean ± SEM), C. albicans100, broth microdilution): 0.43 µg/mL (≈ 0.906 µM)
reduction of biofilm formation (S. epidermidis biofilm): 79.5%
Single-step resistance frequency (mutation frequency) (C. albicans200 [32]): 4.40 × 10^–7
zone of inhibition at 100000 µg/mL [33]: 27 ± 0.24 mm
combination effect (S. epidermidis [34]): S (S: synergism)
fractional inhibitory concentration index (FICI) (S. epidermidis [34]): 0.5
